Measurements reported in patent US12291511B2, “Polymerase inhibitors and related compositions and methods” (Promega Corporation, priority 2018, dated 2025).

How the values were obtained:
Type in all cases: biochemical
Taq DNA Polymerase = Taq DNA Polymerase (Thermus aquaticus, UniProt P19821); assay: Activated calf thymus DNA polymerase activity assay (radioactive incorporation) at 22° C.
Experimental: Activity assays were used to test the concentrations of small molecule polymerase inhibitors in specific reaction conditions to determine inhibition efficacy. Corresponding IC50 values were also determined for the compounds. Activity assays were also used to test the temperatures or temperature ranges at which the reactions are inhibited by the compounds.
Exemplary activity assays can be carried out according to a variety of methods. For example, a DNA polymerase activity assay monitoring radioactive incorporation where “activated” calf thymus or salmon sperm DNA is used as the DNA substrate. Along with the DNA substrate, the reactions minimally contain a buffer (e.g., GoTaq® buffer), magnesium, dNTPs, and polymerase. Reactions were stopped, and DNA was precipitated by ice-cold TCA (tricholoracetic acid), incubated on ice for at least 10 minutes, filtered using GF/C filters, and radioactive incorporation in precipitable DNA (on filter) measured by scintillation counting. (See, e.g., Apospian & Kornberg. (1962) JBC 237:519-525.; Chien et al. (1976) J. Bact. 127:1550-1557.)
FIG. 7 includes a representation of a polymerase activity assay carried out at 22° C., where an inhibitor (i.e. compound #7124) is titrated. FIG. 7 is an example of an activity assay where IC50 can be determined. […] Activated calf thymus DNA activity assay was used in these experiments. […]

Taq [1] = molecular target: T1, Taq (Thermus aquaticus, UniProt P19821); assay: Hot-start PCR of CCR5 gene (500 bp amplicon) with human genomic DNA as template; conditions: CCR5 target; for 500 bp yield: compared with no hot-start (GoTaq® DNA Polymerase)
T1 sequence (P19821 whole entry): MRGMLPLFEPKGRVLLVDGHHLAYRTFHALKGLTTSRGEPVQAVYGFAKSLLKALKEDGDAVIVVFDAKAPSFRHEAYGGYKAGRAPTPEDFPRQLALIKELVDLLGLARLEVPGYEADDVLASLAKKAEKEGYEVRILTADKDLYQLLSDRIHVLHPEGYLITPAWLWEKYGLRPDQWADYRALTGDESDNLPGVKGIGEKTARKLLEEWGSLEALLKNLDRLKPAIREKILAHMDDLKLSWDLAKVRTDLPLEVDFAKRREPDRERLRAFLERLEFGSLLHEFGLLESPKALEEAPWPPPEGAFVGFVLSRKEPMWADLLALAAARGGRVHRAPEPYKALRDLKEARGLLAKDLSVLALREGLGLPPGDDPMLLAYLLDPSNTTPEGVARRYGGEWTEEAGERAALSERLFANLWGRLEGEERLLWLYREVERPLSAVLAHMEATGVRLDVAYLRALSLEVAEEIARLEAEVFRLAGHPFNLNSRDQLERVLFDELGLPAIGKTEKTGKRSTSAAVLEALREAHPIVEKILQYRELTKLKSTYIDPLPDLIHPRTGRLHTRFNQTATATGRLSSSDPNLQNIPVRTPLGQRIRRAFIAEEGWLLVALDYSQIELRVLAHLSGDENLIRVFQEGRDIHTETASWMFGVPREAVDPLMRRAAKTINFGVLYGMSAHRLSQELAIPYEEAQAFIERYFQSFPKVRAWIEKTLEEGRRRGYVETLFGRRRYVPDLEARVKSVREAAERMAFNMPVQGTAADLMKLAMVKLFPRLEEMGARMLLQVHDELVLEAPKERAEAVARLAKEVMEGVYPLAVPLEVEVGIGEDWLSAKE
Excerpt: Testing of Human Genomic Templates. FIG. 11 includes a representative image of an agarose gel used to evaluate the CCR5 gene amplification products of various hot-start PCR reactions performed with and without two different polymerase inhibitors (compound #7124 and compound #7261) and using human genomic DNA as a template. The target amplicon is 500 bp, and without the use of hot-start, there is a significant amount of primer dimer. With compound #7124 and compound #7261, the 500 bp yield increased, but primer dimer amounts remained (compare to GoTaq® DNA Polymerase treatment for no hot-start and GoTaq® Hot-Start DNA Polymerase with an antibody-mediated hot-start). Reaction components are provided in Table 2 below; the following cycling methods were used: [(22° C. for 90 min, 94° C. for 2 min) 1 cycle, (92° C. for 30 sec, 68° C. for 2 min) 45 cycles, (72° C. for 5 min) 1 cycle, 4° C. soak].

Taq [2] = molecular target: T1, Taq; assay: Hot-start PCR of Human Dystrophin Alu 7-2 gene (320 bp amplicon) with human genomic DNA as template; conditions: HD Alu 7-2 target; for secondary products (seen as a smear): at certain concentrations; for 320 bp yield: human genomic DNA, compared with no hot-start
Experimental: FIG. 12 includes a representative image of an agarose gel used to evaluate the Human Dystrophin Alu-72 gene amplification products of various hot-start PCR reactions performed with and without two different polymerase inhibitors (compound #7124 and compound #7261) and using human genomic DNA as a template. The target amplicon is 320 bp, and without hot-start, there is less yield. […] Reaction components are provided in Table 2 below; the following cycling methods were used: [(22° C. for 90 min, 94° C. for 2 min) 1 cycle, (94° C. for 50 sec, 59° C. for 50 sec, 68° C. for 2 min) 42 cycles, 4° C. soak].

[3] = molecular target: T2, GoTaq® DNA Polymerase (Taq DNA polymerase) (Thermus aquaticus, UniProt P19821); assay: Hot-start PCR of 1.5 kb fragment of the Corynephage omega gene from plasmid DNA, after 22° C. pre-incubation, agarose gel read-out; conditions: '25 to 150 μM or greater' for the derivatives
T2 construct: purchased
T2 sequence (P19821 whole entry, the tested form may be a part): as the sequence (P19821 whole entry) above
Experimental: When carried out using hot-start conditions, the polymerase (e.g., Taq polymerase) was inhibited at lower temperatures, but activated at the start of amplification when temperatures increased to denature the DNA (e.g., 95° C.); the amplification produced a single product approximately 1.5 kb in size. When carried out using non-hot-start conditions, the DNA polymerase was not inhibited at lower temperatures, and amplification produced a product approximately 400 bp in size (among other secondary products), and the 1.5 kb fragment was transiently present. To test the ability of the thermally-labile small molecule polymerase to inhibit DNA polymerase (e.g., Taq DNA polymerase) activity, the amplification reactions were incubated at 22° C. for 1.5 to 6 hours or longer prior to performing PCR amplification.
The amplifications were set up at room temperature. The thermally-labile small molecule polymerase inhibitor(s) were titrated (concentrations will depend on exact compound, enzyme being inhibited, detergent concentration, and other buffer conditions) into reactions. For these experiments, the following composition were used: 1× GoTaq® Colorless Flexi Buffer, 2.5 mM MgCl2, 200 μM each dNTP, 0.4 μM each primer, 0.025 U/μl GoTaq® DNA Polymerase, 500 pg plasmid DNA and nuclease-free water to bring it to a 25 μl reaction. […]

Sequence of Taq DNA Polymerase (P19821 whole entry): as above

Row | SMILES | inhibition ultimately reached as concentration increased (Taq DNA Polymerase; high inhibitor concentration) [%] | IC50 (Taq DNA Polymerase; titration of inhibitor, calculated from graph (FIG. 7)) [µM] | primer dimer amounts (Taq [1]) | 500 bp yield (Taq [1]) | secondary products (seen as a smear) (Taq [2]) | 320 bp yield (Taq [2]) | potency of DNA polymerase inhibitors (summary comparison of #7261 with derivatives) [3]
1 | CCCCCCCCCCCCC(OC(=O)NCCCS(=O)(=O)[O-])c1ccc(OC)cc1.[Na+] (centres unmarked) [compound #7124, Sodium 3-((((1-(4-methoxyphenyl)tridecyl)oxy)carbonyl)amino)propane-1-sulfonate] | 100 | ~150 | remained | increased | dramatically decreased | increased | 
2 | CCCCCCCCCCCCC(OC(=O)NCCCS(=O)(=O)[O-])c1ccc(Cl)o1.[Na+] (centres unmarked) [compound #7261, Sodium 3-((((1-(5-chlorofuran-2-yl)tridecyl)oxy)carbonyl)amino)propane-1-sulfonate] |  |  | remained | increased | dramatically decreased | increased | about 75 μM
